According to ChEMBL document CHEMBL6109033, “Design and synthesis of novel antioxidants derived from chalcones and their protective effects on cardiomyocytes by activating Nrf2/HO-1 pathway” (Bioorg Med Chem Lett, 2025):
Activity calls are given as the source filed them. The rule behind the calls is not given here.

Assays:
H9c2 [1] = assay: Antioxidant activity against H2O2-induced oxidative stress in rat H9c2 cells assessed as cell viability at 5 uM pretreated with compounds for 18 hrs followed by H2O2 stimulation for 24 hrs by MTT assay; type: functional, cell-based; conditions: time 42.0 hrs
H9c2 [2] = assay: Upregulation of HO-1 protein expression in rat H9c2 cells incubated for 18 hrs by Western blot analysis; type: functional, cell-based; conditions: dose 0.625-2.5 µM
H9c2 [3] = assay: Cytoprotective activity against H2O2-induced oxidative stress in rat H9c2 cells assessed as inhibition of cell viability pretreated with compounds for 18 hrs followed by H2O2 stimulation for 24 hrs by MTT assay; type: functional, cell-based; conditions: dose 0.625-5 µM, time 42.0 hrs
H9c2 [4] = assay: Downregulation of Nrf2 expression in rat H9c2 cells transfected with Nrf2 siRNA at 0.625 uM pretreated with compound for 18 hrs followed by H2O2 stimulation for 24 hrs by Western blot analysis; type: functional, cell-based; conditions: time 42.0 hrs
H9c2 [5] = assay: Inhibition of H2O2-induced oxidative stress in rat H9c2 cells assessed as reduction intracellular ROS level pretreated with compounds for 18 hrs followed by H2O2 stimulation for 2 hrs by DCFH-DA based fluorescence microscopic analysis; type: functional, cell-based; conditions: dose 1.25-5 µM, time 20.0 hrs
H9c2 [6] = assay: Cytoprotective activity against H2O2-induced rat H9c2 cells assessed as reversal of colony formation inhibition by colony formation assay; type: functional, cell-based; conditions: dose 1.25-5 µM
H9c2 [7] = assay: […] of H2O2-induced oxidative stress in rat H9c2 cells assessed as decrease in MDA level pretreated with compounds for 18 hrs followed by H2O2 stimulation for 2 hrs by MDA assay; type: functional, cell-based; conditions: dose 1.25-5 µM, time 20.0 hrs
H9c2 [8] = assay: Cytoprotective activity against high glucose-induced oxidative stress in rat H9c2 cells assessed as inhibition of cell viability pretreated with compounds for 18 hrs followed by H2O2 stimulation for 24 hrs by MTT assay; type: functional, cell-based; conditions: dose 0.625-5 µM, time 42.0 hrs
H9c2 [9] = assay: Activation of Nrf2 nuclear translocation in rat H9c2 cells assessed as increase in accumulation of Nrf2 in nucleus at 10 uM incubated for 6 hrs by DAPI staining based fluorescence microscopic analysis; type: cell-based; conditions: filed as activator

Row | Compound | Activity (H9c2 [1]) | further results
1 | COc1ccccc1[C@H]1CN(C)C2(C(=O)Nc3ccc(Cl)cc32)[C@H]1C(=O)c1ccc(O)c(O)c1 (some centres undefined) | Active | 
2 | COc1ccccc1[C@H]1CN(C)C2(C(=O)Nc3ccccc32)[C@H]1C(=O)c1ccc(O)c(O)c1 (some centres undefined) | Active | 
3 | COc1ccccc1/C=C/C(=O)c1ccc(O)c(O)c1 | Active | 
4 | COc1ccc(OC)c([C@H]2CN(C)C3(C(=O)Nc4ccc(Br)cc43)[C@H]2C(=O)c2ccc(O)c(O)c2)c1 (some centres undefined) | Active | 
5 | COc1ccc(OC)c([C@H]2CN(C)C3(C(=O)Nc4ccc(F)cc43)[C@H]2C(=O)c2ccc(O)c(O)c2)c1 (some centres undefined) | Active | 
6 | COc1ccc(OC)c([C@H]2CN(C)C3(C(=O)Nc4ccc(Cl)cc43)[C@H]2C(=O)c2ccc(O)c(O)c2)c1 (some centres undefined) | Active | 
7 | COc1ccc(OC)c([C@H]2CN(C)C3(C(=O)Nc4ccccc43)[C@H]2C(=O)c2ccc(O)c(O)c2)c1 (some centres undefined) | Active | Activity (H9c2 [2]): Dose-dependent-effect; Activity (H9c2 [3]): Dose-dependent-effect; Activity (H9c2 [4]): Active; inhibition (H9c2 [5]): Dose-dependent-effect; Activity (H9c2 [6]): Dose-dependent-effect; Activity (H9c2 [7]): Dose-dependent-effect; Activity (H9c2 [8]): Dose-dependent-effect; Activity (H9c2 [9]): Active
8 | COc1ccc(OC)c([C@H]2CN(C)C3(C(=O)Nc4ccc(OC)cc43)[C@H]2C(=O)c2ccc(O)c(O)c2)c1 (some centres undefined) | Active | 
9 | COc1ccc2c(c1)C1(C(=O)N2)[C@@H](C(=O)c2ccc(O)c(O)c2)[C@@H](c2ccccc2OC)CN1C (some centres undefined) | Active | Activity (H9c2 [3]): Dose-dependent-effect; inhibition (H9c2 [5]): Dose-dependent-effect; Activity (H9c2 [6]): Dose-dependent-effect; Activity (H9c2 [7]): Dose-dependent-effect; Activity (H9c2 [8]): Dose-dependent-effect
10 | COc1ccccc1[C@H]1CN(C)C2(C(=O)Nc3ccc(Br)cc32)[C@H]1C(=O)c1ccc(O)c(O)c1 (some centres undefined) | Active | 
11 | COc1ccccc1[C@H]1CN(C)C2(C(=O)Nc3ccc(C)cc32)[C@H]1C(=O)c1ccc(O)c(O)c1 (some centres undefined) | Active | 
12 | COc1ccc(OC)c([C@H]2CN(C)C3(C(=O)Nc4ccc(C)cc43)[C@H]2C(=O)c2ccc(O)c(O)c2)c1 (some centres undefined) | Active | 
13 | COc1ccc(OC)c(/C=C/C(=O)c2ccc(O)c(O)c2)c1 | Active | 
14 | COc1ccc(OC)c([C@H]2CN(C)[C@]3(C(=O)c4cccc5cccc3c45)[C@H]2C(=O)c2ccc(O)c(O)c2)c1 | Active | 
15 | COc1ccccc1[C@H]1CN(C)[C@]2(C(=O)c3cccc4cccc2c34)[C@H]1C(=O)c1ccc(O)c(O)c1 | Active | 
16 | COc1ccccc1[C@H]1CN(C)C2(C(=O)Nc3ccc(F)cc32)[C@H]1C(=O)c1ccc(O)c(O)c1 (some centres undefined) | Active | 
